From patent US20020128295A1, “Use of pyridoxamine for the treatment and inhibition of obesity-related complications” (priority 2000, published 2002)
Marks after values point to notes of the source that are not given here.

Experiments:
[1] = system: advanced lipoxidation end-products (ALEs); settings: lipid peroxidation reactions in vitro; cited from earlier work
[2] = system: Zucker obese (fa/fa) rats; assay: Vascular changes in aorta and coronary arteries at necropsy; assay type: in vivo, rat
Description: All experiments were carried out in accordance with the regulations of the Institutional Animal Care and Use Committee of the University of South Carolina. Female Zucker obese (fa/fa) rats 6 weeks old, (n=14) and lean (LN) littermates (Fa/fa), also 6 weeks old (n=7) were purchased from Charles River Laboratories (Wilmington, Mass.). The fa/fa rats were divided randomly into two groups of 7 each, untreated fatty control (FC) and PM-treated (FPM) animals, the latter group receiving 2 g PM/L in the drinking water. […] All animals were housed individually with a light dark cycle of 12 hours each, and had free access to food and water. Blood was drawn from anaesthetized (isoflurane) rats by heart puncture and transferred into heparinized vacutainer tubes on ice. Plasma was separated from whole blood within 30 min by centrifugation in a refrigerated benchtop centrifuge; aliquots of plasma were stored at −70° C. until time of analysis. Rats were then killed by over-anesthetization, and liver and kidneys were removed, and both organs rinsed in phosphate buffered saline, and weighed. One kidney was cut in half transversely, and one half was removed for fixation (buffered formalin) for light microscopy. The remaining kidney and liver samples were frozen at −70° C. […]

[3] = system: Zucker obese (fa/fa) rats; assay: Dyslipidemia: plasma triglycerides and total cholesterol; assay type: in vivo, rat
Description: (§1) All experiments were carried out in accordance with the regulations of the Institutional Animal Care and Use Committee of the University of South Carolina. Female Zucker obese (fa/fa) rats 6 weeks old, (n=14) and lean (LN) littermates (Fa/fa), also 6 weeks old (n=7) were purchased from Charles River Laboratories (Wilmington, Mass.). The fa/fa rats were divided randomly into two groups of 7 each, untreated fatty control (FC) and PM-treated (FPM) animals, the latter group receiving 2 g PM/L in the drinking water. […] All animals were housed individually with a light dark cycle of 12 hours each, and had free access to food and water. Blood was obtained from the tail vein, using heparinized microhematocrit tubes, and plasma recovered by centrifugation at 4° C. All assays for proteins and metabolites in plasma and urine were performed by microplate adaptations of current methods, using a Wallac Victor Model 1420 multilabel plate reader (Wallac, Inc., Gaithersburg, Md.). […] Plasma glucose was measured using the Trinder assay Kit (Sigma #315) and total glycated hemoglobin (GlcHb) by boronate affinity chromatography (Sigma kit #442-B). Total plasma triglycerides and cholesterol were analyzed by enzymatic, calorimetric, end-point assays using Sigma kits for triglycerides (#37, GPO Trinder) and total cholesterol (#352). Insulin was measured using a direct sandwich ELISA for rat insulin (ALPCO, Windham, N.H.). Plasma PM concentration was measured by reverse phase high performance liquid chromatography (RP-HPLC) with fluorescence detection, using 293/393 nm excitation and emission wavelengths.

[4] = system: Zucker obese (fa/fa) rats; assay: Systolic blood pressure by tail cuff plethysmography; assay type: in vivo, rat; settings: initial 125-130 mm Hg at week 5; FC rose to 165 mm Hg
Description: (§2) All experiments were carried out in accordance with the regulations of the Institutional Animal Care and Use Committee of the University of South Carolina. Female Zucker obese (fa/fa) rats 6 weeks old, (n=14) and lean (LN) littermates (Fa/fa), also 6 weeks old (n=7) were purchased from Charles River Laboratories (Wilmington, Mass.). The fa/fa rats were divided randomly into two groups of 7 each, untreated fatty control (FC) and PM-treated (FPM) animals, the latter group receiving 2 g PM/L in the drinking water. […] All animals were housed individually with a light dark cycle of 12 hours each, and had free access to food and water. Blood pressure measurements were initiated at week 5 in the experiment after acclimating the animals to the apparatus, and were carried out the week following blood and urine collection. Measurements were made by tail cuff plethysmography using a Kent Scientific XBP instrument.

[5] = system: Zucker obese (fa/fa) rats; assay: Chemical modifications (AGE/ALEs) and fluorescence in skin collagen; assay type: in vivo, rat
Description: (§3) All experiments were carried out in accordance with the regulations of the Institutional Animal Care and Use Committee of the University of South Carolina. Female Zucker obese (fa/fa) rats 6 weeks old, (n=14) and lean (LN) littermates (Fa/fa), also 6 weeks old (n=7) were purchased from Charles River Laboratories (Wilmington, Mass.). The fa/fa rats were divided randomly into two groups of 7 each, untreated fatty control (FC) and PM-treated (FPM) animals, the latter group receiving 2 g PM/L in the drinking water. […] All animals were housed individually with a light dark cycle of 12 hours each, and had free access to food and water. The insoluble fraction of skin collagen was prepared by scraping the skin with a single-edged razor blade to remove hair and adventitious tissue, followed by a series of extractions with 0.5 M NaCl, 0.5 M acetic acid and chloroform/methanol (2:1 v/v), as described previously (Dyer et al., J. Clin. Invest. 91:2463-2469 (1993)). Fructoselysine (FL), a measure of glycation of collagen, and CML, CEL, MDA-lysine and HNE-lysine were assayed by isotope dilution, selected ion monitoring gas chromatography—mass spectrometry (SIM-GC/MS), and pentosidine by RP-HPLC, all as described previously (Requena et al., Biochem. J. 322:317-325 (1997)). Levels of AGEs/ALEs were expressed relative to the FL content of the collagen in order to correct for differences in mean age of the protein (see Table 1 and Discussion, below). Collagen fluorescence (Ex=370 nm, Em=440 nm) was measured after solubilization with pepsin (20 μg/mL in 0.5 M acetic, 24 hr at 37° C.), and was normalized to the hydroxyproline content of the collagen, measured as described by Stegemann and Stalder (Clin. Chim. Acta 18:267-273 (1967)).

[6] = system: Zucker obese (fa/fa) rats; assay: Plasma glucose and total glycated hemoglobin (glycemic control); assay type: in vivo, rat; settings: for Plasma glucose: mean ± SD, 7 animals
Description: as §1

[7] = system: Zucker obese (fa/fa) rats; assay: Renal function: urinary protein, albumin, plasma creatinine, urine volume; assay type: in vivo, rat
Description: All experiments were carried out in accordance with the regulations of the Institutional Animal Care and Use Committee of the University of South Carolina. Female Zucker obese (fa/fa) rats 6 weeks old, (n=14) and lean (LN) littermates (Fa/fa), also 6 weeks old (n=7) were purchased from Charles River Laboratories (Wilmington, Mass.). The fa/fa rats were divided randomly into two groups of 7 each, untreated fatty control (FC) and PM-treated (FPM) animals, the latter group receiving 2 g PM/L in the drinking water. […] All animals were housed individually with a light dark cycle of 12 hours each, and had free access to food and water. Progression of renal disease was assessed by measurements of plasma creatinine and urinary albumin and total urinary protein. Plasma creatinine concentration was measured by the Jaffe picric acid procedure, using Sigma kit #555-A. For urine collections, rats were housed in metabolic rat cages for 24 hr with free access to food and water. Several drops of toluene were added to the urine collection beaker to inhibit microbial growth. Urinary albumin was quantified by an ELISA assay. Rabbit antiserum to rat albumin and horseradish peroxidase (HRP)-conjugated goat anti-rabbit IgG were purchased from ICN Biomedical Research Products, Costa Mesa, Calif. Briefly, wells were coated with 50 ng of rat albumin (Sigma, St. Louis) in 0.1 M sodium carbonate buffer, pH 10.4, overnight at 4° C. […] After washing, horseradish peroxidase-conjugated goat anti-rabbit IgG (200 μL) was applied for 1 h at 25° C. with shaking, and the plate was developed with 200 μL of ABTS-reagent (2,2′-azino-bis(3-ethylbenzthiazoline-6-sulfonic acid) for 45 min at room temperature. Absorbance was measured at 405 nm. Total urinary protein was measured using the Sigma Microprotein-PR Kit. Based on preliminary experiments in which known amounts of PM were added to urine, PM increased the final absorbance readings in the protein assay, so that a correction (<10%) was applied for the PM content of the urine.

[8] = system: streptozotocin (STZ)-induced diabetic rat; settings: earlier study, cited from earlier work
[9] = system: Zucker obese (fa/fa) rats; assay: Glycation (fructoselysine) of skin collagen by SIM-GC/MS; assay type: in vivo, rat; settings: insoluble skin collagen
Description: as §3

[10] = system: Sprague-Dawley and Zucker rats; settings: rat, in vivo
Description: as §2, with “water.” for “water. Blood pressure measurements were initiated at week 5 in the experiment after acclimating the animals to the apparatus, and were carried out the week following blood and urine collection. Measurements were made by tail cuff plethysmography using a Kent Scientific XBP instrument.”

[11] = system: Zucker obese (fa/fa) rats; assay: Fasting plasma insulin (ELISA); assay type: in vivo, rat
Description: as §1, with “Blood was obtained from the tail vein, using heparinized microhematocrit tubes, and plasma recovered by centrifugation at 4° C.” left out, “Plasma PM concentration was measured by reverse phase high performance liquid chromatography (RP-HPLC) with fluorescence detection, using 293/393 nm excitation and emission wavelengths.” left out

[12] = Week 0, 2 g PM/L in drinking water
[13] = Week 16, 2 g PM/L in drinking water
[14] = Week 32, 2 g PM/L in drinking water

Compound: Cc1ncc(CO)c(CN)c1O [PM, Pyridoxamine]
- Inhibition of formation of advanced lipoxidation end-products (ALEs) [1]: potent inhibitor
- Aorta compared with LN animals [2]: indistinguishable from those of LN animals in all but one animal
- Changes in the aortic or coronary vasculature [2]: minimal changes
- Plasma cholesterol ([3]; FC rats approximately 250 mg/dL): ~150 mg/dL
- Plasma triglycerides relative to the level in LN animals ([3]; after 10 weeks): about three
- Plasma triglycerides relative to the values observed in FC animals ([3]; after 10 weeks): less than 50%
- Effect on dyslipidemia, both triglycerides and cholesterol ([3]; fa/fa rat): significantly reduced dyslipidemia
- Plasma cholesterol, higher than in LN animals ([3]; rat, in vivo): ~50%
- Systolic blood pressure course [4]: remained at initial values
- HNE-lysine detectability in skin collagen ([5]; 8 months): not detectable
- MDA-lysine trace amounts in skin collagen ([5]; 8 months, in 3 of 7 animals): < 2 μmol/mol FL
- MDA-Lys in skin collagen ([5]; Week 32): Trace
- Fluorescence of skin collagen ([5]; Week 32, necropsy samples, Ex=370 nm, Em=440 nm): 0.05 ± 0.02 Arbitrary Units/mol FL
- Number of samples in which MDA-lysine was measurable ([5]; Week 32, of 7 animals): (3/7)^d
- Effect on increase in CML and CEL in skin collagen ([5]; fa/fa rats): inhibited the increase in CML and CEL
- Effect on increase in Maillard-type collagen fluorescence ([5]; necropsy samples, FC 2-fold higher than LN): prevented this increase
- Effect on increase in pentosidine in skin collagen ([5]; through week 11): effective in limiting the increase in pentosidine
- MDA-lysine detectability in skin collagen ([5]; until 8 months): no MDA-lysine was detectable
- Significance of differences in pentosidine between FC and FPM rats ([5]; week 32, p=0.07): marginal
- Effect on glycemia ([6]; 32 week experiment): no effect on glycemia
- Glycated Hemoglobin [6, 12]: 6.8 ± 0.5%
- Plasma glucose [6, 12]: 6.8 ± 0.5 mM
- Glycated Hemoglobin [6, 13]: 6.5 ± 0.3%
- Plasma glucose [6, 13]: 6.9 ± 0.6 mM
- Glycated Hemoglobin [6, 14]: 6.8 ± 0.3%
- Plasma glucose [6, 14]: 6.8 ± 0.5 mM
- Difference in urine volume between FC and FPM animals ([7]; at any point in the study): no significant differences in urine volume
- Urinary volume ([7]; end of the study): 27.0 mL/day
- Effect on development of proteinuria ([7]; fa/fa rat, confirmed by plasma creatinine): impressive protection against development of proteinuria
- Albuminuria and plasma creatinine ([8]; STZ-induced diabetic rat): marked reduction in albuminuria and plasma creatinine
- Development of renal disease ([8]; STZ-induced diabetic rat): significantly inhibited the development of renal disease
- Effect on glycemic control ([8]; STZ-induced diabetic rat): no effect on glycemic control
- Reduction in hyperlipidemia ([8]; STZ-rat): > 50%
- Glycation of Skin Collagen FL ([9]; Week 0): 3.5 ± 0.2 mmol/mol lysine
- Glycation of Skin Collagen FL ([9]; Week 11): 3.0 ± 0.1 mmol/mol lysine
- Glycation of Skin Collagen FL ([9]; Week 32): 2.3 ± 0.3 mmol/mol lysine
- Tolerability of the dose [10]: well tolerated
- Fasting plasma insulin ([11]; 32 weeks): 7.3 ± 0.6 µg/L
- Effect on insulin resistance ([11]; fa/fa animals): did not significantly affect insulin resistance
